pIC50: −log10 of the molar value. Where two headings read alike, the source gives them in different places.
Key:
hRORγ = biological target: T1, hRORγ (Homo sapiens, UniProt P51449); assay: protein thermal stability shift assay (TSA)
T1 sequence (P51449 1-518): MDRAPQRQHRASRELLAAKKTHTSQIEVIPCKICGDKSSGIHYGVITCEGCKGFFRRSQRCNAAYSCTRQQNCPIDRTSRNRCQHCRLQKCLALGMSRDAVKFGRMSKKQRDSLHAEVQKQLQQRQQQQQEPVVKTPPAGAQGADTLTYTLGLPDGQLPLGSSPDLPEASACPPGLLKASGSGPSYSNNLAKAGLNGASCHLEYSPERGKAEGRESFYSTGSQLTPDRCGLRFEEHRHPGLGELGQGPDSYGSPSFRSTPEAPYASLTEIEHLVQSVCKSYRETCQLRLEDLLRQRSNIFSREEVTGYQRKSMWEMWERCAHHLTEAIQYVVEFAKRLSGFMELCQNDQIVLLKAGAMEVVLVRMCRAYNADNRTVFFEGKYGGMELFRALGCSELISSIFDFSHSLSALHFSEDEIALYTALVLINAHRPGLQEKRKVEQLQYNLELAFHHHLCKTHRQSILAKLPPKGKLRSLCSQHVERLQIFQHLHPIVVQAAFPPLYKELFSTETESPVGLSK

RORγ = biological target: T2, RORγ (Homo sapiens, UniProt P51449); assay: luciferase dual reporter gene assay, Gal4-RORγLBD in 293T cells
T2 sequence (P51449 269-508 limits assumed): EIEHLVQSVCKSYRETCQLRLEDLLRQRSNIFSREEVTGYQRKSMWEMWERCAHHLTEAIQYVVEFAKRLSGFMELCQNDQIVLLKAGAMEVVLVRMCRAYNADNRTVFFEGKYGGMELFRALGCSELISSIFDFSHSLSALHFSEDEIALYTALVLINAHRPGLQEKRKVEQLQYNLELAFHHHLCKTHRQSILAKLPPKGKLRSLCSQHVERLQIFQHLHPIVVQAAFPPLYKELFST

[1] = read-out: ΔTm (TSA detection technique), hRORγ 10 μM, compound 200 μM
[2] = IC50 (luciferase detection technique), RORγ transcriptional activity, Table 1
[3] = read-out: ΔTm (TSA detection technique)

| SMILES | ΔTm at 200 µM (hRORγ; [1]) | pIC50 (RORγ; [2]) | ΔTm at 200 µM (hRORγ; [3]) | pIC50 (RORγ) |
| --- | --- | --- | --- | --- |
| CCS(=O)(=O)c1ccc(C(NC(C)=O)C(=O)Nc2ccc(-c3nc4cc(C(=O)NC(C)C)ccc4n3[C@@H](C)c3ccc(C)cc3)cc2)cc1 (stereo partly drawn) [Example 79, 2-(4-(2-acetylamino-2-(4-(ethylsulfonyl)phenyl)acetylamino)phenyl)-N-isopropyl-1-((S)-1-(p-tolyl)ethyl)-1H-benzo[d]imidazol-5-formamide] | 5 to 10 °C | 5.00 to 6.00 |  |  |
| CCS(=O)(=O)c1ccc(CC(=O)Nc2ccc(-c3nc4cc(Cl)ccc4n3Cc3ccccc3)cc2)cc1 [Example 53] | 5 to 10 °C | > 7.00 |  |  |
| CCCCCn1c(-c2ccc(NC(=O)C(NC(C)=O)c3ccc(S(=O)(=O)CC)cc3)cn2)nc2ccc(C)cc21 (centres unmarked) [Example 81, 2-acetylamino-2-(4-(ethylsulfonyl)phenyl)-N-(6-(6-methyl-1-pentyl-1H-benzo[d]imidazol-2-yl)pyridin-3-yl)acetamide] |  |  | < 5 °C | > 7.00 |
| CCCCCn1c(-c2ccc(NC(=O)C(NC(C)=O)c3ccc(S(=O)(=O)CC)cc3)cc2)nc2ccc(C)cc21 (centres unmarked) [Example 76, 2-acetylamino-2-(4-(ethylsulfonyl)phenyl)-N-(4-(6-methyl-1-pentyl-1H-benzo[d]imidazol-2-yl)phenyl)acetamide] | < 5 °C | > 7.00 |  |  |
| CCS(=O)(=O)c1ccc(C(NC(C)=O)C(=O)Nc2ccc(-c3nc4ccc(C)cc4n3[C@@H](C)c3ccc(C)cc3)cc2)cc1 (stereo partly drawn) [Example 73, 2-acetylamino-2-(4-(ethylsulfonyl)phenyl)-N-(4-(6-methyl-1-((S)-1-(p-tolyl)ethyl)-1H-benzo[d]imidazol-2-yl)phenyl)acetamide] | < 5 °C | > 7.00 |  |  |
| CCS(=O)(=O)c1ccc(C(NC(C)=O)C(=O)Nc2ccc(-c3nc4ccc(C)cc4n3[C@H](C)c3ccc(C)cc3)nc2)cc1 (stereo partly drawn) [Example 82, 2-acetylamino-2-(4-(ethylsulfonyl)phenyl)-N-(6-(6-methyl-1-((R)-1-(p-tolyl)ethyl)-1H-benzo[d]imidazol-2-yl)pyridin-3-yl)acetamide] |  |  | < 5 °C | > 7.00 |
| CCS(=O)(=O)c1ccc(C(NC(C)=O)C(=O)Nc2ccc(-c3nc4ccc(C)cc4n3[C@@H](C)c3ccc(C)cc3)cc2)cc1 (single isomer, unassigned) [Example 75] |  | 6.00 to 7.00 |  |  |
| CCS(=O)(=O)c1ccc(CC(=O)Nc2ccc(-c3nc4cc(Cl)c(Cl)cc4n3Cc3ccccc3)cc2)cc1 [Example 86, N-(4-(1-benzyl-5,6-dichloro-1H-benzo[d]imidazol-2-yl)phenyl)-2-(4-(ethylsulfonyl)phenyl)acetamide] | < 5 °C | 6.00 to 7.00 |  |  |
| CCS(=O)(=O)c1ccc(CC(=O)Nc2ccc(-c3nc4ccc(F)cc4s3)cc2)cc1 [Example 30, 2-(4-(ethylsulfonyl)phenyl)-N-(4-(6-fluorobenzo[d]thiazol-2-yl)phenyl)acetamide] | 5 to 10 °C | 5.00 to 6.00 |  |  |
| CCS(=O)(=O)c1ccc(C(NC(C)=O)C(=O)Nc2ccc(-c3nc4ccc(C)cc4n3[C@H](C)c3ccc(C)cc3)cc2)cc1 (stereo partly drawn) [Example 77, 2-acetylamino-2-(4-(ethylsulfonyl)phenyl)-N-(4-(6-methyl-1-((R)-1-(p-tolyl)ethyl)-1H-benzo[d]imidazopyridin-2-yl)phenyl)acetamide] | < 5 °C | > 7.00 |  |  |
| CCS(=O)(=O)c1ccc(CC(=O)Nc2ccc(-c3nc4ccc(C)cc4[nH]3)cc2)cc1 [Example 87, 2-(4-(ethylsulfonyl)phenyl)-N-(4-(6-methyl-1H-benzo[d]imidazol-2-yl)phenyl)acetamide] | > 10 °C | 5.00 to 6.00 |  |  |
| CCN1C(=O)c2cccc3c(S(=O)(=O)Nc4ccc(-c5nc6ccc(C)cc6s5)cc4)ccc1c23 [Example 11, 1-ethyl-N-(4-(6-methylbenzo[d]thiazol-2-yl)phenyl)-2-oxo-1,2-dihydrobenzo[cd]indol-6-sulfonamide] |  |  | > 10 °C | 4.00 to 5.00 |
| Cc1ccc(CS(=O)(=O)Nc2ccc(-c3nc4ccc(C)cc4s3)cc2)cc1 [Example 12, N-(4-(6-methylbenzo[d]thiazol-2-yl)phenyl)-1-(p-tolyl)methanesulfonamide] | > 10 °C | 5.00 to 6.00 |  |  |
| CCS(=O)(=O)c1ccc(CC(=O)Nc2ccc(-c3nc4ccc(Cl)cc4n3Cc3ccccc3)cc2)cc1 [Example 52] | < 5 °C | > 7.00 |  |  |
| CCS(=O)(=O)c1ccc(C(NC(C)=O)C(=O)Nc2ccc(-c3nc4cc(C(=O)NC(C)C)ccc4n3[C@@H](C)c3ccc(C)cc3)nc2)cc1 (stereo partly drawn) [Example 84, 2-(5-(2-acetylamino-2-(4-(ethylsulfonyl)phenyl)acetylamino)pyridin-2-yl)-N-isopropyl-1-((S)-1-(p-tolyl)ethyl)-1H-benzo[d]imidazol-5-formamide] | 5 to 10 °C | 5.00 to 6.00 |  |  |
| CCS(=O)(=O)c1ccc(CC(=O)Nc2ccc(-c3nc4ccc(C)cc4s3)c(Cl)c2)cc1 [Example 29, N-(3-chloro-4-(6-methylbenzo[d]thiazol-2-yl)phenyl)-2-(4-(ethylsulfonyl)phenyl) acetamide] | 5 to 10 °C | 6.00 to 7.00 |  |  |
| CCS(=O)(=O)c1ccc(CC(=O)Nc2ccc(-c3nc4ccc(C)cc4n3Cc3ccc(C#N)cc3)cc2)cc1 [Example 49, N-(4-(1-(4-cyanobenzyl)-6-methyl-1H-benzo[d]imidazol-2-yl)phenyl)-2-(4-(ethylsulfonyl)phenyl)acetamide] | 5 to 10 °C | > 7.00 |  |  |
| Cc1cc(C)c(S(=O)(=O)Nc2ccc(-c3nc4ccc(C)cc4s3)cc2)c(C)c1 [Example 10, 2,4,6-trimethyl-N-(4-(6-methylbenzo[d]thiazol-2-yl)phenyl)benzenesulfonamide] | > 10 °C | 5.00 to 6.00 |  |  |
| Cc1ccc2nc(-c3ccc(NS(=O)(=O)c4ccc([N+](=O)[O-])cc4)cc3)sc2c1 [Example 5, N-(4-(6-methylbenzo[d]thiazol-2-yl)phenyl)-4-nitrobenzenesulfonamide] | < 5 °C | 5.00 to 6.00 |  |  |
| CCS(=O)(=O)c1ccc(CC(=O)Nc2ccc(-c3nc4ccc(C(=O)NC5CCCC5)cc4n3[C@H](C)c3ccc(C)cc3)cc2)cc1 [Example 70, (R)—N-cyclopentyl-2-(4-(2-(4-(ethylsulfonyl)phenyl)acetylamino)phenyl)-1-(1-(p-tolyl)ethyl)-1H-benzo[d]imidazol-6-formamide] | 5 to 10 °C | > 7.00 |  |  |
| Cc1ccc2nc(-c3ccc(NS(=O)(=O)Cc4ccc(C#N)cc4)cc3)sc2c1 [Example 16, 1-(4-cyanophenyl)-N-(4-(6-methylbenzo[d]thiazol-2-yl)phenyl)methanesulfonamide] | > 10 °C | 5.00 to 6.00 |  |  |
| CCS(=O)(=O)c1ccc(CC(=O)Nc2ccc(-c3nc4cc(C)c(C)cc4n3Cc3ccccc3)cc2)cc1 [Example 85, N-(4-(1-benzyl-5,6-dimethyl-1H-benzo[d]imidazol-2-yl)phenyl)-2-(4-(ethylsulfonyl)phenyl)acetamide] | < 5 °C | 6.00 to 7.00 |  |  |
| CCS(=O)(=O)c1ccc(C(NC(C)=O)C(=O)Nc2ccc(-c3nc4cc(C(=O)NC(C)C)ccc4n3[C@H](C)c3ccc(C)cc3)cc2)cc1 (stereo partly drawn) [Example 78, 2-(4-(2-acetylamino-2-(4-(ethylsulfonyl)phenyl)acetylamino)phenyl)-N-isopropyl-1-((R)-1-(p-tolyl)ethyl)-1H-benzo[d]imidazol-5-formamide] | 5 to 10 °C | 5.00 to 6.00 |  |  |
| Cc1ccc(CC(=O)Nc2ccc(-c3nc4ccc(C)cc4s3)cc2)cc1 [Example 27, N-(4-(6-methylbenzo[d]thiazol-2-yl)phenyl)-2-(p-tolyl)acetamide] | > 10 °C | 4.00 to 5.00 |  |  |
| CCS(=O)(=O)c1ccc(CC(=O)Nc2ccc(-c3nc4cc(C(=O)NC5CCCC5)ccc4n3[C@H](C)c3ccc(C)cc3)cc2)cc1 [Example 72, (R)—N-cyclopentyl-2-(4-(2-(4-(ethylsulfonyl)phenyl)acetylamino)phenyl)-1-(1-(p-tolyl)ethyl)-1H-benzo[d]imidazol-5-formamide] | 5 to 10 °C | > 7.00 |  |  |
| CCS(=O)(=O)c1ccc(C(NC(C)=O)C(=O)Nc2ccc(-c3nc4cc(C(=O)NC(C)C)ccc4n3[C@H](C)c3ccc(C)cc3)nc2)cc1 (stereo partly drawn) [Example 83, 2-(5-(2-acetylamino-2-(4-(ethylsulfonyl)phenyl)acetylamino)pyridin-2-yl)-N-isopropyl-1-((R)-1-(p-tolyl)ethyl)-1H-benzo[d]imidazol-5-formamide] | < 5 °C | 5.00 to 6.00 |  |  |
| CCS(=O)(=O)c1ccc(C(NC(C)=O)C(=O)Nc2ccc(-c3nc4ccc(C)cc4n3[C@@H](C)c3ccc(C)cc3)nc2)cc1 (stereo partly drawn) [Example 80, 2-acetylamino-2-(4-(ethylsulfonyl)phenyl)-N-(6-(6-methyl-1-((S)-1-(p-tolyl)ethyl)-1H-benzo[d]imidazol-2-yl)pyridin-3-yl)acetamide] |  |  | < 5 °C | > 7.00 |

Reference: patent US20230219925A1, “BENZO FIVE-MEMBERED NITROGEN HETEROCYCLIC COMPOUND AND APPLICATION THEREOF” (GUANGZHOU INSTITUTES OF BIOMEDICINE AND HEALTH CHINESE …, priority 2020, published 2023)
